Experimental data as given in patent publication US9278143B2, “Imaging agents, process for the preparation thereof and pharmaceutical compositions containing same” (CENTRE NATIONAL DE LA RECHERCHE SCIENTIFIQUE (CNRS), priority 2011, dated 2016).

Tests used:
[1] = Plasma pharmacokinetics after intravenous injection; type: in vivo, mouse; design: distribution volume: unit not given here; details: female Swiss nude mice, 2 nmol/animal
Protocol: In female Swiss nude mice (N=18), the compound of Example 3 solubilized to 10 nmol/ml in 0.9% NaCl solution is injected intravenously (200 μl) into the caudal vein. Blood is collected at various times (5 and 30 minutes then 2, 4, 8 and 24 hours; 3 mice/sample time) and, after centrifugation, the supernatant plasma is transferred to heparinized tubes. The sample is then diluted in 50 μl of a 20 mM ammonium formate/acetonitrile/formic acid 50/50/0.1 buffer mixture to be analyzed by UPLC-MS/MS, ESI+.

[2] = system: A549 human lung adenocarcinoma model; assay: Targeting of heterotopically-transplanted tumors, fluorescence imaging; type: in vivo, mouse; details: A549 xenograft in Swiss nude mice, 2 nmol i.v., t24h
Protocol: (§1) In the right rear paw of Swiss nude mice (N=12), 1 to 2×10^6 tumor cells are inoculated subcutaneously, forming a group of 3 mice for each tumor cell line (A549 human lung adenocarcinoma model; H460 human lung carcinoma model; HCT116 human colorectal carcinoma model; U87MG human glioblastoma model).
(§2) When the tumors reach a volume of between 0.5 and 1 cm, the compound of Example 3 (200 μl) solubilized at 10 nmol/ml in phosphate buffer solution (PBS) is injected intravenously.
(§3) Under gas anesthesia, 5 acquisitions are carried out at various times of the experiment (2, 4, 6, 8 and 24 hours) using a Caliper IVIS Lumina II apparatus (ex=680 nm; em=720 nm). In parallel, blood samples are taken.
(§4) After the animals are euthanized by cervical dislocation, the organs (kidney, liver, spleen, lung, tumor, blood, muscle, heart, intestine) are taken and ex vivo acquisition is carried out (Lumina II: ex=680 nm; em=720 nm).

[3] = system: H460 human lung carcinoma model; assay: as above; type: in vivo, mouse; details: H460 xenograft in Swiss nude mice, 2 nmol i.v., t24h
Protocol: as §1, §2, §3, §4

[4] = system: HCT116 human colorectal carcinoma model; assay: as above; type: in vivo, mouse; details: HCT116 xenograft in Swiss nude mice, 2 nmol i.v., t24h
Protocol: as §1, §2, §3, §4

[5] = system: U87MG human glioblastoma model; assay: as above; type: in vivo, mouse; details: U87MG xenograft in Swiss nude mice, 2 nmol i.v., t24h
Protocol: as §1, §2, §3, §4

[6] = system: A549, H460, HCT116, U87MG tumors; assay: Tumor fixation kinetics and ex vivo biodistribution, results stated across the tumor models; type: in vivo, mouse
Protocol: as §1, §2, §3, §4

[7] = system: K-rasLA1 murine model spontaneously developing bronchioloalveolar carcinoma; assay: Targeting of spontaneous tumors, ex vivo lung fluorescence; type: in vivo, mouse; details: K-rasLA1 mice, 200 μl at 10 nmol/ml i.v.
Protocol: On the K-rasLA1 murine model spontaneously developing bronchioloalveolar carcinoma, tumor development is controlled by X-ray scanner synchronized on respiration before injection of the product to be tested. The compound of Example 3 (200 μl) solubilized at 10 nmol/ml in phosphate buffer solution (PBS) is then injected intravenously.
After the animals are euthanized, the lungs are taken to be fixed by tracheal injection of neutral formalin. Acquisition of fluorescence ex vivo is carried out using a Caliper IVIS Lumina II apparatus (ex=680 nm; em=720 nm). A photograph of the excised lung is also taken.

[8] = system: U87MG (human glioblastoma) tumor cells; assay: Interaction with tumor development, bioluminescence; type: in vivo
Protocol: In the right rear paw of Swiss nude mice (N=12), 3×10^6 U87MG (human glioblastoma) tumor cells are inoculated subcutaneously. When the tumor reaches a volume of 0.5 cm, luciferin (2 mg/mouse) is injected intraperitoneally in order to carry out bioluminescence acquisition and quantification at D0.
The animals are divided into 3 groups of 4 to form a control group with no injection; a group receiving a single intravenous injection of the compound of Example 3 (2 nmol in 200 μl); and a group receiving a weekly intravenous injection for 4 weeks of the compound of Example 3 (2 nmol in 200 μl). Lastly, bioluminescence acquisition and quantification are carried out 3 times per week after the intraperitoneal injection of luciferin.

distribution volume [1]: 1 | half-life ([1]; mouse, plasma): 15 h | clearance ([1]; mouse, plasma, read-out: plasma clearance rate): 0.8 mL/min/kg
Structure (SMILES): CC[N+]1=C(/C=C/C=C/C=C2/N(CCCCCC(=O)NCc3ccc4c(c3)Cc3cc(OCCCNc5cc(C)ccn5)ccc3CC4CC(=O)O)c3ccc4c(S(=O)(=O)O)cc(S(=O)(=O)O)cc4c3C2(C)C)C(C)(C)c2c1ccc1c(S(=O)(=O)O)cc(S(=O)(=O)O)cc21 (centres unmarked) [Example 3, Cy™ 5.5 Conjugate of the Compound of Preparation 1]
tumor/healthy tissue ratio [2]: 2.3 | tumor/healthy tissue ratio [3]: 1.66 | tumor/healthy tissue ratio [4]: 2 | tumor/healthy tissue ratio [5]: 3.5 | biodistribution in the principal organs ([6]; ex vivo, 24 hours after injection): high specificity of the probe for the tumor | signal of tumor volume relative to muscle tissue ([6]; ex vivo, 24 hours after injection, on average): 12 times | tumor/kidney ratio ([6]; ex vivo, t24h): 2 | visibility of targeted tumors by fluorescence imaging ([6]; whatever cancer line, 2 nmol i.v., 24 hours post-injection): clearly visible | targeting of neoplastic lesions formed in situ [7]: strong potential of targeting | tumor growth by bioluminescence ([8]; U87MG in Swiss nude mice, control, single i.v. injection, or weekly i.v. injection for 4 weeks, 2 nmol): identical for the three groups | anti- or pro-angiogenic effect ([8]; single or multiple injections, 2 nmol/mouse): No anti- or pro-angiogenic effect is observed
